{
  "source": "patent US20080311601A1",
  "about": "“Methods for Prediction and Prognosis of Cancer, and Monitoring Cancer Therapy” (priority 2005, published 2008)",
  "system": "VEGF",
  "assay": "VEGF ELISA on plasma from renal cell carcinoma patients treated with Sorafenib",
  "type": "in vivo, human",
  "protocol": "Duplicate samples were used to measure the VEGF level using a VEGF ELISA (R&D Systems, Minneapolis, Minn.) per the manufacturers directions. The mean value of the duplicate measurements was determined for each patient.",
  "data": [
    {"smiles": "CNC(=O)c1cc(Oc2ccc(NC(=O)Nc3ccc(Cl)c(C(F)(F)F)c3)cc2)ccn1", "note": "[Sorafenib]", "values": [
      {"measurement": "Median VEGF", "setting": "Baseline (pretreatment)", "result": 237.4, "unit": "pg/mL"},
      {"measurement": "Median VEGF", "setting": "Cycle 1 Day 21", "result": 301.6, "unit": "pg/mL"},
      {"measurement": "Median VEGF", "setting": "Cycle 3 Day 1", "result": 309.0, "unit": "pg/mL"},
      {"measurement": "change of VEGF levels from baseline", "setting": "at both time points (Cycle 1 Day 21, Cycle 3 Day 1), p<<0.01, paired t-test", "result": "increase significantly from baseline"}
    ]}
  ]
}
